From patent US12550899B2, “Topramezone derivative and use thereof” (priority 2023, dated 2026)

What was measured:
Type in all cases: in vivo
Acalypha australis = experiment: Laboratory bioactivity efficacy test 2.1 (foliar spray); conditions: fresh weight control efficacy 14 days after application
Description: (§1) Refer to the “Pesticides guidelines for laboratory bioactivity tests Part 4: Foliar spray application test for herbicide activity, NY/T 1155.4-2006”.
(§2) • grassy weeds: Setaria viridis, Chloris virgata; • sedge: Cyperus rotundus; • Broadleaf weeds: Amaranthus retroflexus, Chenopodium album, Acalypha australis, Commelina communis, Convolvulus arvensis, Cirsium setosum, and Eclipta prostrata. 2.1.3 Test Conditions
(§3) The soil used for the test was a mixture of surface 20 cm loam and vermiculite, mixed in a volume ratio of 3:1 to form a culture soil. The test corn was cultured in a glass greenhouse with a temperature ranging from 25° C. to 35° C. and under natural light.
(§4) A measured quantity of weed seeds were sown in plastic pots with a diameter of 9 cm, and covered with 1-2 mm of soil. The ports were then placed in enamel trays filled with water, and watered by bottom irrigation. After sowing, the pots were transferred to the glass greenhouse for cultivation and growth.
(§5) Five dosages were set for Compound I, Compound II and the control herbicide Topramezone, which were 3.75, 7.5, 15, 30 and 60 grams of active ingredient per hectare respectively. In addition, a blank control was also prepared.
(§6) The required amount of the herbicide was accurately measured out, an appropriate amount of emulsifier and organic solvent were added to dissolve the herbicide, and then a certain amount of water was added therein until the herbicide was diluted to the required dosage by using the serial dilution method for standby.
(§7) The fresh weight of each treatment was surveyed 14 days after the application of the herbicide. The fresh weight control efficacy was calculated according to the following formula: fresh weight control efficacy (%)=(control fresh weight−treatment fresh weight)/control fresh weight×100.
(§8) A DPS statistical software was used to conduct regression analysis on the logarithmic values of the herbicide dosage and the probit values of the corn fresh weight control efficacy, and the correlation coefficient, GR50, GR90, and the 95% confidence interval were calculated.

Amaranthus retroflexus = experiment: as above; conditions: fresh weight control efficacy 14 days after application
Description: as §1, §2, §3, §4, §5, §6, §7, §8

Chenopodium album = experiment: as above; conditions: fresh weight control efficacy 14 days after application
Description: as §1, §2, §3, §4, §5, §6, §7, §8

Chloris virgata = experiment: as above; conditions: fresh weight control efficacy 14 days after application
Description: as §1, §2, §3, §4, §5, §6, §7, §8

Cirsium setosum = experiment: as above; conditions: fresh weight control efficacy 14 days after application
Description: as §1, §2, §3, §4, §5, §6, §7, §8

Commelina communis = experiment: as above; conditions: fresh weight control efficacy 14 days after application
Description: as §1, §2, §3, §4, §5, §6, §7, §8

Convolvulus arvensis = experiment: as above; conditions: fresh weight control efficacy 14 days after application
Description: as §1, §2, §3, §4, §5, §6, §7, §8

Cyperus rotundus = experiment: as above; conditions: fresh weight control efficacy 14 days after application
Description: as §1, §2, §3, §4, §5, §6, §7, §8

Eclipta prostrata = experiment: as above; conditions: fresh weight control efficacy 14 days after application
Description: as §1, §2, §3, §4, §5, §6, §7, §8

Setaria viridis = experiment: as above; conditions: fresh weight control efficacy 14 days after application
Description: as §1, §2, §3, §4, §5, §6, §7, §8

[1] = test system: Abutilon theophrasti medicus; experiment: Laboratory bioactivity efficacy test 2.2 (foliar spray)
Procedure: (§9) • grassy weeds: Digitaria sanguinalis, Eleusine indica, Echinochloa crusgalli; • Broadleaf weeds: Portulaca oleracea, Abutilon theophrasti medicus. 2.2.2 Test Conditions
(§10) The soil used for the test was a mixture of surface 20 cm loam and vermiculite, mixed in a volume ratio of 3:1 to form a culture soil. The test weeds were cultured in a glass greenhouse with a temperature ranging from 25° C. to 35° C. and under natural light.
(§11) Quantified seeds of Digitaria sanguinalis, Eleusine indica, Echinochloa crusgalli, Portulaca oleracea, and Abutilon theophrasti medicus were sown in plastic pots with a diameter of 9 cm, and covered with 1-2 mm of soil. The ports were then placed in enamel trays filled with water, and watered by bottom irrigation. After the water seeped to the soil surface, the pots were transferred to the glass greenhouse for standby.
as §5
(§12) The required amount of the herbicide was accurately measured out and directly added with water, which was diluted to the required dosage by using the serial dilution method for standby.
(§13) The test was conducted on grassy weeds at the two-leaf and one-heart stage, Abutilon theophrasti medicus at the 2-true-leaf stage, and Portulaca oleracea at the 3-5-leaf stage, with the stems and leaves both sprayed uniformly. The ASS-4 automatic control spraying system with a fan-shaped nozzle was used indoors for herbicide application. Depending on the nozzle pressure and flow rate, 50 mL of herbicide solution was applied to a spraying area of 1.1 m^2 (which was equivalent to the water consumption of 30 L per mu). The system's operating speed was calibrated. The plastic pots to be treated were arranged evenly on the spraying platform to ensure uniform treatment. The spray pressure was set to 0.35 MPa, and the flow rate of the fan-shaped nozzle was set to 800 mL/min. The spraying was carried out in sequence from the low dosage to the high dosage. Each treatment was repeated two to four times.
(§14) The herbicide was applied once. After spraying, the pots were air-dried for one day and then placed in the glass greenhouse. Regular watering was conducted to maintain moisture.
(§15) The damage symptoms of the weeds (such as growth inhibition, chlorosis, malformation, etc.) were carefully recorded at 3, 7, 10, and 20 days after herbicide application. A visual comparison of the herbicide effectiveness was made. At 20 days post-application, the fresh weight of the aboveground parts of the weeds from each treatment group was measured, and the fresh weight control efficacy was calculated.
(§16) The treatment results were calculated according to the following formula: weed fresh weight control efficacy (%)=(control fresh weight−treatment fresh weight)/control fresh weight×100.
(§17) A DPS statistical software was used to conduct regression analysis on the logarithmic values of the herbicide dosage and the probit values of the weed fresh weight control efficacy, and the correlation coefficient, GR50, GR90, and the 95% confidence interval were calculated.

Digitaria sanguinalis = experiment: as above; conditions: fresh weight control efficacy 20 days post-application
Procedure: as §9, §10, §11, §5, §12, §13, §14, §15, §16, §17

Echinochloa crusgalli = experiment: as above; conditions: fresh weight control efficacy 20 days post-application
Procedure: as §9, §10, §11, §5, §12, §13, §14, §15, §16, §17

Eleusine indica = experiment: as above; conditions: fresh weight control efficacy 20 days post-application
Procedure: as §9, §10, §11, §5, §12, §13, §14, §15, §16, §17

Portulaca oleracea = experiment: as above; conditions: fresh weight control efficacy 20 days post-application
Procedure: as §9, §10, §11, §5, §12, §13, §14, §15, §16, §17

[2] = test system: grassy weeds and broadleaf weeds; experiment: Laboratory bioactivity efficacy test 2.2, visual observation of weeds
Procedure: as §9, §10, §11, §5, §12, §13, §14, §15

[3] = Abutilon theophrasti Medicago, fresh weight control efficacy 20 days post-application

Work on `Cc1c(C(=O)c2cnn(C)c2O)ccc(S(C)(=O)=O)c1C1=NOCC1` [Topramezone] yielded a GR50 (Acalypha australis) of 5.27 g a.i./ha, a GR90 (Acalypha australis) of 16.92 g a.i./ha and a GR50 (Amaranthus retroflexus) of 4.05 g a.i./ha. The GR90 (Amaranthus retroflexus) was 11.29 g a.i./ha, the GR50 (Chenopodium album) was 3.22 g a.i./ha and the GR90 (Chenopodium album) was 12.76 g a.i./ha. For the same compound, the GR50 (Chloris virgata) was 3.33 g a.i./ha, the GR90 (Chloris virgata) was 15.81 g a.i./ha and the GR50 (Cirsium setosum) was 15.89 g a.i./ha. The GR90 (Cirsium setosum) was 49.41 g a.i./ha, the GR50 (Commelina communis) was 14.38 g a.i./ha and the GR90 (Commelina communis) was 40.29 g a.i./ha. For the same compound, the GR50 (Convolvulus arvensis) was 4.63 g a.i./ha, the GR90 (Convolvulus arvensis) was 66.46 g a.i./ha and the GR50 (Cyperus rotundus) was 16.11 g a.i./ha. It also gave a GR90 (Cyperus rotundus) of 39.22 g a.i./ha, a GR50 (Eclipta prostrata) of 6.33 g a.i./ha and a GR90 (Eclipta prostrata) of 23.72 g a.i./ha. The GR50 (Setaria viridis) was 6.72 g a.i./ha, the GR90 (Setaria viridis) was 19.16 g a.i./ha and the “Visual observation of weeds” value ([1]; 3 to 7 days after application, broadleaf weeds like Abutilon theophrasti medicus) was “directly dried up and died”. For the same compound, the “GR50 (95% confidence interval)” value [1, 3] was 2.02 (0.77-3.38) g a.i./ha, the “GR90 (95% confidence interval)” value [1, 3] was 8.83 (6.22-11.10) g a.i./ha and the GR50 (Digitaria sanguinalis) was 10.09 g a.i./ha. For the same compound, the GR90 (Digitaria sanguinalis) was 36.27 g a.i./ha, the GR50 (Echinochloa crusgalli) was 6.52 g a.i./ha and the GR90 (Echinochloa crusgalli) was 12.92 g a.i./ha. The GR50 (Eleusine indica) was 2.75 g a.i./ha, the GR90 (Eleusine indica) was 16.07 g a.i./ha and the “GR50 (95% confidence interval)” value (Portulaca oleracea) was 7.56 (6.00-9.07) g a.i./ha. For the same compound, the “GR90 (95% confidence interval)” value (Portulaca oleracea) was 35.74 (29.42-46.03) g a.i./ha, the “Visual observation of weeds” value ([2]; 3 to 7 days after application, grassy weeds and broadleaf weeds like Portulaca oleracea) was “gradually became whitened and withered” and the “Visual observation of weeds” value ([2]; 10 days after application) was “excellent treatment effects”. The “Visual observation of weeds” value ([2]; 20 days after application) was “dried up and died”.
